Measured values as given in ChEMBL document CHEMBL3217432, “Oxazole phosphonic acids as fructose 1,6-bisphosphatase inhibitors with potent glucose-lowering activity” (Medchemcomm, 2011).
pIC50: −log10 of the molar value.

Columns and labels:
[1] = molecular target: T1, Fructose-1,6-bisphosphatase 1 (Homo sapiens, UniProt P09467); test: Inhibition of human liver FBPase
T1 sequence (P09467 whole entry): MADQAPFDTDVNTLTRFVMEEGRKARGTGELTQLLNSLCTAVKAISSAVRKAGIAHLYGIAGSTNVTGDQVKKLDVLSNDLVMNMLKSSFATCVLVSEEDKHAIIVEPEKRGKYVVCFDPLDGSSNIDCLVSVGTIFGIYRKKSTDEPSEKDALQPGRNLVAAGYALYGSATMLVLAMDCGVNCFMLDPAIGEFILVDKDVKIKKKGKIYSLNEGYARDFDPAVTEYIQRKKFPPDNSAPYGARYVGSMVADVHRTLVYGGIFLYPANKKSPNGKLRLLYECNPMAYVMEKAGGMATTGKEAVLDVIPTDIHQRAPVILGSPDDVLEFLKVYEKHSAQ

[2] = molecular target: T2, Fructose-1,6-bisphosphatase 1 (Rattus norvegicus, UniProt P19112); test: Inhibition of rat liver FBPase
T2 sequence (P19112 whole entry): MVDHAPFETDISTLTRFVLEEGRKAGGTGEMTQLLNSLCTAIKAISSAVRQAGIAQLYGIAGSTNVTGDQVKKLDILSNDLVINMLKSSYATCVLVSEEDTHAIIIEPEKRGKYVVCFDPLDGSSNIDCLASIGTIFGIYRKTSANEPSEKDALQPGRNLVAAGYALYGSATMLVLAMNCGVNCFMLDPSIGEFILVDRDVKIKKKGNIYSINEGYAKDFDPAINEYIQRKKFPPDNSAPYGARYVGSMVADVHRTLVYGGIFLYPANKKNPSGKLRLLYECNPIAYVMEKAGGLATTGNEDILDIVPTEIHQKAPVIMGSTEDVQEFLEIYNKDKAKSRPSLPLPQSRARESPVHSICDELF

Rattus norvegicus = test: Antidiabetic activity in rat assessed as reduction of blood glucose level at 10 mg/kg, iv relative to control; assay type: functional; set-up: scale not given: the % may be the effect or the level left

Row | Structure (SMILES) | pIC50 [1] | pIC50 [2] | Activity (Rattus norvegicus) [%]
1 | CCSC(=O)c1oc(N)nc1-c1ccc(P(=O)(O)O)o1 | 7.52 | 5.64 | 51
2 | CC(C)(C)C(=O)c1oc(N)nc1-c1ccc(P(=O)(O)O)o1 | 6.07 |  | 
3 | CCCCCc1oc(N)nc1-c1ccc(P(=O)(O)O)o1 | 6.68 | 5.57 | 7
4 | Nc1nc(-c2ccc(P(=O)(O)O)o2)c(Cc2ccccc2)o1 | 6.05 | 5.00 | 
5 | CC(C)Cc1oc(N)nc1-c1ccc(P(=O)(O)O)o1 |  |  | 51
6 | Nc1nc(-c2ccc(P(=O)(O)O)o2)co1 | 5.00 |  | 
7 | CCCSc1oc(N)nc1-c1ccc(P(=O)(O)O)o1 |  |  | 61
8 | COC(=O)c1oc(N)nc1-c1ccc(P(=O)(O)O)o1 | 7.17 | 5.41 | 0
9 | CCOC(=O)c1oc(N)nc1-c1ccc(P(=O)(O)O)o1 |  |  | 18
10 | CC(C)OC(=O)c1oc(N)nc1-c1ccc(P(=O)(O)O)o1 | 7.40 |  | 7
11 | Nc1nc(-c2ccc(P(=O)(O)O)o2)c(C(=O)OCc2ccccc2)o1 | 7.07 | 5.65 | 0
12 | CC(C)Cc1ocnc1-c1ccc(P(=O)(O)O)o1 | 5.72 |  | 
13 | CC(C)Cc1oc(N(C)C)nc1-c1ccc(P(=O)(O)O)o1 | 5.68 |  | 
14 | CNc1nc(-c2ccc(P(=O)(O)O)o2)c(CC(C)C)o1 | 5.37 |  | 
15 | CCc1nc(-c2ccc(P(=O)(O)O)o2)c(CC(C)C)o1 | 6.02 |  | 
16 | Nc1nc(C(=O)OCP(=O)(O)O)co1 | 5.15 |  | 
17 | CC(C)c1oc(N)nc1C(=O)OCP(=O)(O)O | 6.24 |  | 
18 | O=C(OCP(=O)(O)O)c1ncoc1-c1ccccc1 | 5.00 |  | 

Further compounds by rising pIC50 [1], results first:

Row | pIC50 [1] | pIC50 [2] | Structure (SMILES) | Activity (Rattus norvegicus) [%]
19 | 5.00 |  | CC(C)Cc1oc(O)nc1-c1ccc(P(=O)(O)O)o1 | 
20 | 5.00 |  | CCNc1nc(-c2ccc(P(=O)(O)O)o2)c(CC(C)C)o1 | 
21 | 5.00 |  | Cc1nc(C(=O)OCP(=O)(O)O)c(C(F)(F)F)o1 | 
22 | 5.17 |  | C=Cc1nc(-c2ccc(P(=O)(O)O)o2)c(CC(C)C)o1 | 
23 | 5.40 |  | Nc1nc(-c2ccc(P(=O)(O)O)o2)c(Sc2ccccc2)o1 | 
24 | 5.66 |  | CC(C)Cc1oc(C(C)C)nc1-c1ccc(P(=O)(O)O)o1 | 
25 | 6.00 |  | CNC(=O)c1oc(N)nc1-c1ccc(P(=O)(O)O)o1 | 0
26 | 6.38 |  | Cc1oc(N)nc1C(=O)OCP(=O)(O)O | 
27 | 6.42 |  | CCc1oc(N)nc1C(=O)OCP(=O)(O)O | 
28 | 6.46 |  | CCCCCc1oc(N)nc1C(=O)OCP(=O)(O)O | 
29 | 6.49 | 5.26 | Nc1nc(-c2ccc(P(=O)(O)O)o2)c(CC2CCCCC2)o1 | 
30 | 6.55 |  | CCCc1oc(N)nc1C(=O)OCP(=O)(O)O | 
31 | 6.59 | 5.43 | Nc1nc(-c2ccc(P(=O)(O)O)o2)c(Cc2cccs2)o1 | 
32 | 6.60 | 5.77 | CCCCc1oc(N)nc1C(=O)OCP(=O)(O)O | 22
33 | 6.77 | 5.64 | CCCCc1oc(N)nc1-c1ccc(P(=O)(O)O)o1 | 10
34 | 6.80 | 5.60 | Nc1nc(-c2ccc(P(=O)(O)O)o2)c(-c2ccccc2)o1 | 8
35 | 6.85 | 5.52 | C=CCc1oc(N)nc1-c1ccc(P(=O)(O)O)o1 | 19
36 | 6.92 | 5.77 | CC(C)(C)Sc1oc(N)nc1-c1ccc(P(=O)(O)O)o1 | 
37 | 6.96 | 6.05 | CC(C)Sc1oc(N)nc1-c1ccc(P(=O)(O)O)o1 | 61
